We go through two compounds from PMC10004598, “Identification and Characterization of a Novel Cathelicidin from Hydrophis cyanocinctus with Antimicrobial and Anti-Inflammatory Activity” (Molecules, 2023).

In brackets after ≈: the same amount, converted by molar mass. Like-named read-outs stand apart in the source and are kept apart here. No end group written: not given here.

One data set concerns human erythrocytes. Conditions: human erythrocytes 2% suspension, 250 μg/mL, 37 °C, 0.5 h, absorbance 540 nm, 1% Triton X-100 = complete hemolysis; mean of three independent experiments in triplicate. As for the experimental part: Centrifuge at 25 °C at 1500 rpm for 5 min. Transfer 180 μL of supernatant to a 96-well plate and measure absorbance value at 540 nm. Normal saline was used as a negative control and 1% Triton X-100 solution as a positive control (complete hemolysis).

Data set [1] relates to S. aureus biofilm formation. Nature of the data set: Biofilm inhibition assay (crystal violet). In kind it is cell-based, Staphylococcus aureus. As to conditions: 2 × MIC, 37 °C, 24 h, absorbance 600 nm, three independent experiments in quintuplicate. As for the experimental part: Sterile PBS was used to wash 3 times and methanol was used to fix it for 0.5 h. After drying, 1% crystal violet solution was used to stain for 0.5 h, washed 3 times with sterilized deionized water, and dissolved with 100 μL anhydrous ethanol. The absorbance was measured at 600 nm.

Data set [2] concerns E. coli. As to conditions: human serum:peptide solution (10 mg/mL) 4:1 v:v, 37 °C, read-out MIC, mean of three independent experiments in triplicate.
Experimental: The same amount of solution was taken at each time point and gradient dilution was carried out with normal saline.
Data set [3] relates to E. coli. As to conditions: mean of three independent experiments in triplicate. On the procedure:
E. coli was inoculated into MH broth and oscillated (37 °C, 220 rpm, 12 h) to the logarithmic growth stage. Then diluted to 10^6 CFU/mL in MH broth with NaCl (0, 50, 100, 150, and 200 mM) or CaCl2 (1, 2, and 4 mM). […] The absorption value was detected at 600 nm.

Data set [4] has as its system E. coli. As to conditions: mean of three independent experiments in triplicate. As for the experimental part:
E.coli was inoculated into MH broth and oscillated (37 °C, 220 rpm, 12 h) to the logarithmic growth stage. Then diluted to 10^6 CFU/mL. […] Then, the absorbance was measured at 600 nm.
The source holds these as a separate data set.

In data set [5] the test system is K. pneumoniae 50 (clinical isolate). Nature of the data set: microbe, parasite or virus in culture. As for the experimental part: (§1) The microorganisms (Staphylococcus aureus [ATCC 25923], Escherichia coli [ATCC 25922], and Propionibacterium acnes [ATCC 6919]) were obtained from Fuxiang Biotechnology (Shanghai, China). The five strains of K. pneumoniae clinical isolates (44, 48, 49, 50, and 51) were obtained from the Department of Critical Care Medicine, Shanghai Tenth People’s Hospital.
(§2) The antimicrobial assay was performed by broth microdilution method, following the guidelines of the Clinical and Laboratory Standards Institute. Strains (mentioned in Section 4.3) were inoculated into Mueller-Hinton broth (MH), oscillated (37 °C, 220 rpm, 12 h) to the logarithmic growth stage, and then diluted to 10^6 CFU/mL. […] Then, the absorbance was measured at 600 nm in a microplate reader (Epoch Biotek, Winooski, VT, USA). […] The minimum inhibitory concentration (MIC) was defined as the lowest concentration of an antimicrobial where there was no visible growth. After measuring the MIC, a 50 μL sample was taken from the growth well without visible bacteria, serially diluted with phosphate-buffered saline (PBS, pH = 7.0), then spread on an MH agar solid medium and incubated at 37 °C for 12 h. The number of colonies was calculated, and the minimum drug concentrations that killed 99.9% of bacteria were considered the minimum bactericidal concentration (MBC) of the peptide.

Data set [6] relates to K. pneumoniae 49 (clinical isolate). In words: microbe, parasite or virus in culture. On the procedure: as §1, §2
Data set [7] concerns Escherichia coli [ATCC 25922]. In words: microbe, parasite or virus in culture. On the procedure: as §1, §2
In data set [8] the test system is Klebsiella pneumoniae 44 (clinical isolate). Nature of the data set: microbe, parasite or virus in culture. As for the experimental part:
as §1, §2

For data set [9], the system named is K. pneumoniae 48 (clinical isolate). Nature of the data set: microbe, parasite or virus in culture. On the procedure:
as §1, §2

Data set [10] has as its system Propionibacterium acnes [ATCC 6919]. Nature of the data set: microbe, parasite or virus in culture. On the procedure:
as §1, §2

Data set [11] concerns K. pneumoniae 51 (clinical isolate). In words: microbe, parasite or virus in culture. As for the experimental part:
as §1, §2

Data set [12] concerns Staphylococcus aureus [ATCC 25923]. As to conditions: broth microdilution, MH broth, 37 °C, 16–20 h. On the procedure: as §1, §2
Data set [13] concerns L929 (mouse fibroblast cell line). Nature of the data set: Cytotoxicity assay (CCK-8). In kind it is cell-based. As to conditions: L929, 32 μg/mL, 24 h, mean of three independent experiments in triplicate. As for the experimental part: (§3) RAW264.7 (murine macrophage cell line), L929 (mouse fibroblast cell line), and HaCaT (human immortal keratinocyte cell line) were purchased from the Shanghai Institute of Biochemistry and Cell Science, Chinese Academy of Sciences.
(§4) The cells were cultured using a DMEM medium containing 10%FBS and 1% penicillin-streptomycin solution. In 96-well plates, 100 µL of cells (2 × 10^4 cells/well) in DMEM were seeded and cultured overnight in an incubator at 5% CO2 and 37 °C. […] Subsequently, the medium was replaced by 100 μL DMEM containing 10% Cell Counting Kit-8 reagent, and incubated for 0.5 h at 37 °C. The absorbance was measured at […].

In data set [14] the test system is HaCaT (human immortal keratinocyte cell line). Nature of the data set: Cytotoxicity assay (CCK-8). In kind it is cell-based. Conditions: 32 μg/mL, 24 h, mean of three independent experiments in triplicate. As for the experimental part:
as §3, §4

Data set [15] relates to E. coli. Conditions: mean of three independent experiments in triplicate. As for the experimental part: E. coli was inoculated into MH broth and oscillated (37 °C, 220 rpm, 12 h) to the logarithmic growth stage. Then diluted to 10^6 CFU/mL. […] The MICs of these peptides were then measured.
This is another data set of the same source.

In data set [16] the test system is E. coli. In kind it is cell-based, Escherichia coli. As to conditions: compound at MBC, 37 °C. As for the experimental part:
Time-killing kinetics were determined with the method as previously described. […] The mixture was sampled 50 μL at 5, 15, 30, 60, 120, 240, and 480 min. Dilute the samples with sterile MH broth to a 10-fold gradient. Bacterial suspensions were plated at MH agar plates. After incubation at 37 °C for 12 h, the number of colonies was calculated.

With “KRFKKFFKKLRKSVKKRVKKFFKKPKVIGVSIPF [Hydrostatin-AMP2]”, the Hemolysis in the data set on human erythrocytes is given as 4.6%. In addition, the “inhibition of biofilm formation” value in data set [1] was found to be 71.02%. Further, the “MIC after incubation with human serum” value in the data set on E. coli [2] (1 h), with E. coli [2] (2 h) and in the data set with E. coli [2] (3 h) was 32 µg/mL throughout. Further, the MIC in the data set on E. coli [3] (Control (NaCl 0 mM, untreated peptide)) is 16 µg/mL; in the data set on E. coli [3] (MH broth with CaCl2 1 mM), 64 µg/mL; against E. coli [3] (MH broth with CaCl2 2 mM), 64 µg/mL; with E. coli [3] (MH broth with CaCl2 4 mM), 128 µg/mL; against E. coli [3] (MH broth with NaCl 50 mM) it was 32 µg/mL; against E. coli [3] (MH broth with NaCl 100 mM) it was 32 µg/mL. Moreover, the MIC came to 32 µg/mL against E. coli [3] (MH broth with NaCl 150 mM); 64 µg/mL with E. coli [3] (MH broth with NaCl 200 mM); 32 µg/mL in [5] (K. pneumoniae 50, clinical isolate, broth microdilution, MH broth, 37 °C, 16–20 h); 32 µg/mL in data set [6] (K. pneumoniae 49, clinical isolate, broth microdilution, MH broth, 37 °C, 16–20 h); 16 µg/mL in data set [7] (broth microdilution (CLSI), MH broth, 10^6 CFU/mL, 37 °C, 16–20 h, absorbance 600 nm); 32 µg/mL in data set [8] (Klebsiella pneumoniae 44, clinical isolate, broth microdilution, MH broth, 37 °C, 16–20 h). In addition, the MIC in [9] (K. pneumoniae 48, clinical isolate, broth microdilution, MH broth, 37 °C, 16–20 h) was 16 µg/mL; in data set [10] (Propionibacterium acnes, broth microdilution, MH broth, 37 °C, 16–20 h), 32 µg/mL; in data set [11] (K. pneumoniae 51, clinical isolate, broth microdilution, MH broth, 37 °C, 16–20 h) it was 32 µg/mL; in data set [12], 32 µg/mL. Further, the “MIC after incubation at temperature” value is 32 µg/mL against E. coli [4] (peptide incubated at 4 °C for 1 h), 32 µg/mL against E. coli [4] (peptide incubated at 37 °C for 1 h), 32 µg/mL in the data set with E. coli [4] (peptide incubated at 80 °C for 1 h) and 64 µg/mL in the data set with E. coli [4] (peptide incubated at 100 °C for 1 h). In [7] (minimum concentration killing 99.9% of bacteria, plating on MH agar, 37 °C, 12 h), this compound gave an MBC of 32 µg/mL. Further, the “Cell Death” value is on record as 8.08% in data set [13] and 5.89% in data set [14]. Further, the “MIC after incubation at pH 2” value against E. coli [15] (peptide incubated in PBS pH 2 for 4 h at 37 °C) was 64 μg/mL. Also, the “MIC after incubation at pH 12” value against E. coli [15] (peptide incubated in PBS pH 12 for 4 h at 37 °C) is reported as 64 μg/mL.

On to `CC1(C)S[C@@H]2[C@H](NC(=O)[C@H](N)c3ccccc3)C(=O)N2[C@H]1C(=O)O` [Ampicillin, reference compound], for which the “time at which bacteriostatic effect starts” value in the data set on E. coli [16] is given as at least 1 h. Besides, in the data set on E. coli [16] (8 h), the “killing of E. coli within 8 h” value is listed as “failed to completely kill”. For the same compound, in the data set with E. coli [16] (after 4 h), the killing rate result was “about 47%”. For the same compound, the MIC in data set [5] (Klebsiella pneumoniae) is above 128 µg/mL; in data set [6] (Klebsiella pneumoniae), above 128 µg/mL; in [8] (Klebsiella pneumoniae) it was above 128 µg/mL; in data set [9] (Klebsiella pneumoniae) it was above 128 µg/mL; in [10] (Cutibacterium acnes, ATCC6919), 0.25 µg/mL (≈ 0.715 µM); in data set [11] (Klebsiella pneumoniae), above 128 µg/mL. This compound came in with an MBC in data set [7] (ATCC25922, 12 h) of 16 µg/mL (≈ 45.8 µM).
